Where “and” joins values, the source holds several entries; their conditions need not be identical. Equal entries are not always repeated. Where two headings read alike, the source gives them in different places. A value given as a limit tells only on which side of the number the result lay.

The record followed here is publication PMC7893776, “Selecting an anti-malarial clinical candidate from two potent dihydroisoquinolones” (Malaria Journal, 2021).

Data set [1] in a line: Microsomal stability, human. It counts as in vitro ADME. Conditions: for CLint in vivo: scaled up using PBSF. Here is the method:
The metabolic stability assay was performed by incubating compounds individually (0.8, 4, or 20 µM) with mouse, rat, dog and human liver microsomes (Fisher, 0.5 mg/mL protein concentration) at 37 °C. The metabolic reaction was initiated by the addition of a NADPH-regenerating system and quenched at various time points by the addition of acetonitrile according to a published method.
The remaining concentration of each compound was measured as a ratio of peak area to the internal standard. The log peak area ratio was plotted vs. time (h), and the slope was determined to calculate the elimination rate constant [k = (− 2.303) * slope]. If deviation from first order kinetics was evident, only the initial linear portion of the plot was used to determine the rate constate, k. The half-life (h) was calculated as t1/2 = 0.693/k. Intrinsic clearance in vitro was calculated as CLintin vitro = (1000)*(0.693/t1/2*60)/0.5, where microsomal concentration in the reaction solution was 0.5 mg/mL; 1000 and 60 are scaling factors for volume (µL) and time (min), respectively. The intrinsic in vitro clearance was scaled to the intrinsic in vivo clearance using physiology based scaling factor (PBSF): CLint in vivo= CLint in vitro *PBSF: (microsome protein/gram liver) * (gram liver/kg b.w.), with PBSF: 47 (mouse), 47(rat), 58 (dog), 32 (human); and liver weight proportions: 54.9 (mouse), 36.6 (rat), 32.9 (dog) 25.7 (human).

In another data set the target is T1, CYP2D6 (Homo sapiens, UniProt P10635).
T1 construct: purchased Cypex Ltd (Bactosomes)
The data set is described as follows: CYP450 inhibition, CYP2D6. In kind it is in vitro ADME. To be noted: for inhibition of CYP2D6: 10 µM, probe substrate Bufuralol, replicate measurements.

For a further data set, the target named is T2, CYP1A2 (Homo sapiens, UniProt P05177).
T2 construct: purchased Cypex Ltd (Bactosomes)
T2 sequence (P05177 1-516): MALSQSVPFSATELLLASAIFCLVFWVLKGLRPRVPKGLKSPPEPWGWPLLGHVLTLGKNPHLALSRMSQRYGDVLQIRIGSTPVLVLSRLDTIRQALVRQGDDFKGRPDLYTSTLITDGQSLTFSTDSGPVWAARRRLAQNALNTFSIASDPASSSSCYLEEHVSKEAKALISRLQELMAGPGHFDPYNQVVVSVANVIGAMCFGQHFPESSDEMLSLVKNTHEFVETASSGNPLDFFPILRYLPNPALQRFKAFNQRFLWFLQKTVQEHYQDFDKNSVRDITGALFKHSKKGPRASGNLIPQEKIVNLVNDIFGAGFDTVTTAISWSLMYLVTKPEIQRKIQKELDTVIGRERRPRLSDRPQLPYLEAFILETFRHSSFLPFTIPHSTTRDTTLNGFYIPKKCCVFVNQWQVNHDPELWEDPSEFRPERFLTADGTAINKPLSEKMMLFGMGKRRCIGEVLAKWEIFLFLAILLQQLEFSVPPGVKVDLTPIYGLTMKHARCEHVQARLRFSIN
The data set is described as follows: CYP450 inhibition, CYP1A2. It counts as in vitro ADME. Conditions: for inhibition of CYP1A2: 10 µM, probe substrate Ethoxy-resorufin, replicate measurements.

Data set [2] in a line: Dog pharmacokinetics, single PO or IV dose. In kind it is in vivo, male beagle dogs. To be noted: for bioavailability: read-out: Dog F (oral bioavailability). From the text:
Studies were undertaken to determine the plasma pharmacokinetics of SJ733 and SJ311. These studies included: (i) single oral gavage (PO) or intravenous (IV) dose administration to female C57BL/6 mice; (ii) single PO or IV dose administration to male Sprague Dawley (SD) rats; (iii) single PO or IV dose administration to male beagle dogs; (iv) toxicokinetic (TK) study following single PO administration to male SD rats. The PO and IV formulation used for mouse studies at SJCRH was 1% hydroxypropyl-beta-cyclodextrin (w/v), 10% ethanol (v/v), 10% propylene glycol (v/v), 40% PEG-400 (v/v) and 39% PBS (pH 7.4) isotonic (v/v). Compounds were dosed orally as suspensions, and intravenously as filtered solutions. Compound concentrations were confirmed post filtration using UV spectroscopy. The IV formulation used for rat studies (Monash University) was the same as that used for mice. For PO dosing to rats (Monash University) at 2 mg/kg, a suspension formulation was used containing 0.5% (w/v) hydroxypropyl methylcellulose, 0.5% (v/v) benzyl alcohol and 0.4% (v/v) Tween 80. The formulation used for rat studies at SRI (PO, high dose) was the same as that used in mouse PK studies. The formulation for the high dose TK study at SRI was 0.5% methylcellulose in sterile water. The formulation used for dog studies was the same as that used in mouse PK studies. The plasma PK of SJ733 and SJ311 following a single PO gavage or IV dose (via saphenous vein) to male beagle dogs was determined at an IV dose of 3 mg/kg and PO doses of 3 and 30 mg/kg (n = 3 for each). Briefly, this PK study was carried out in three sessions with one week washout period in between to allow for complete clearance of compounds. In the first session, 6 male dogs were administered a single 3 mg/kg IV dose of SJ311 or SJ733. In the subsequent second and third sessions, the same 6 male dogs were given a single 3 mg/kg or 30 mg/kg PO dose of SJ311 or SJ733, respectively. Plasma (0 -72 h) and urine (0–48 h) samples were collected for further analysis of SJ311 or SJ733 concentrations. Dog plasma was extracted utilizing protein precipitation with a twofold volume ratio of acetonitrile, while urine samples were extracted utilizing liquid–liquid extraction with ethyl acetate. SJ733, SJ311, and verapamil (IS) were quantitated by LC–MS/MS as described above. Plasma concentration time (Ct) data for SJ733 and SJ311 were grouped by nominal time point, and the mean Ct values were subjected to noncompartmental analysis (NCA) using Phoenix WinNonlin 8.1 (Certara USA, Inc., Princeton, NJ). For all experiments, the area under the Ct and first moment curves (AUC, AUMC) were estimated using the “linear up log down” method. The terminal phase was defined as at least three time points at the end of the Ct profile, and the elimination rate constant (Kel) was estimated using an unweighted log-linear regression of the terminal phase. The terminal elimination half-life (T1/2) was estimated as 0.693/Kel, and the AUC from time 0 to infinity ([…]) was estimated as the AUC to the last time point (AUClast) + Clast (predicted)/Kel with the […] similarly calculated. Additional parameters estimated included observed maximum concentration (Cmax), time of Cmax (Tmax), concentration at the last observed time point (Clast), time of Clast (Tlast), and the apparent oral terminal volume of distribution (V/F). The apparent oral clearance (CL/F), systemic clearance (CL) and volume of distribution at steady state (Vss) were all estimated using standard formulae [19].

[3] abbreviates: human microsomes, 20, 4, 0.8 µM.
[4] abbreviates: male, beagle, plasma, po, dosed orally, read-out: Tmax.
Where [5] appears, read: male, beagle, plasma, po, summary over the oral doses studied.
Setting [6] is: human microsomes, 0.8 µM, independent replicate to Table 4.
Where [7] appears, read: human microsomes, 4 µM, independent replicate to Table 4.
The mark [8] stands for this setting: human microsomes, 20 µM, independent replicate to Table 4.

T1 sequence (P10635 whole entry): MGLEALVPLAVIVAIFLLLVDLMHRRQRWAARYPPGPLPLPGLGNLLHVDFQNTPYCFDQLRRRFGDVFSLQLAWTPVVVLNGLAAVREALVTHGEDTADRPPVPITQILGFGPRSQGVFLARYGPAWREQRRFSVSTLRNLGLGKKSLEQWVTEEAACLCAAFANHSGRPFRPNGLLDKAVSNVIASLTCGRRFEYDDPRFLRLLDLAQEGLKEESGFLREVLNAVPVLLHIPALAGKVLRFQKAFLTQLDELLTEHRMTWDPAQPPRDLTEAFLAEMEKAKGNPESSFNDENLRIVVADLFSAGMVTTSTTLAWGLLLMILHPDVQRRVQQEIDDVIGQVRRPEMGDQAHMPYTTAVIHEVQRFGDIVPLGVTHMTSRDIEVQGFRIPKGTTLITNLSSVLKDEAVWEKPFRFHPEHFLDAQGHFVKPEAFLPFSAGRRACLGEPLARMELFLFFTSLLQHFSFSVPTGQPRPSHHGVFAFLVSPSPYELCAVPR

In data set [1] (setting [3]), `N#Cc1cc(NC(=O)C2c3ccccc3C(=O)N(CC(F)(F)F)C2c2cn[nH]c2)ccc1F` (racemic) [(r)-SJ311] yielded a CLint in vitro of under 7 µl/min/mg protein and a CLint in vivo of under 0.312 L/h/kg. Further, the “inhibition of CYP2D6” value against CYP2D6 is 11%. Further, on CYP1A2, the “inhibition of CYP1A2” value is 5% and 0.5%.
For the compound `N#Cc1cc(NC(=O)[C@H]2c3ccccc3C(=O)N(CC(F)(F)F)[C@@H]2c2cn[nH]c2)ccc1F` [(+)-SJ311], in data set [2] (single IV 3 mg/kg), the AUCinf came out at 77.0 ± 12.4 µM·h, the CL is given as 0.085 ± 0.013 L/h/kg, the Dose in urine was 32.3 ± 21.3% and the Half life is reported as 7.8 ± 2.2 h. Also, in data set [2] (single IV 3 mg/kg), the Vss stood at 0.96 ± 0.27 L/kg. In data set [2] (single PO 3 mg/kg), this compound displayed an AUCinf of 56.2 ± 12.1 µM·h, a CL of 0.121 ± 0.030 L/h/kg, a maximum concentration (Cmax) of 4 ± 0.8 µM and a Dose in urine of 34.7 ± 15.9%. In data set [2] (single PO 3 mg/kg), the F% stood at 73.0 ± 15.8%, the Half life is recorded as 6.1 ± 0.6 h, the Tmax turned out to be 3.3 ± 1.2 h and the V turned out to be 1.1 ± 0.4 L/kg. In data set [2] (single PO 30 mg/kg), this compound displayed an AUCinf of 601 ± 137 µM·h, a CL of 0.113 ± 0.025 L/h/kg, a Cmax of 35 ± 5.1 µM and a Dose in urine of 33.4%. In data set [2] (single PO 30 mg/kg), the F% is listed as 77.9 ± 17.7%, the Half life came to 6.7 ± 1.4 h, the Tmax came out at 3.0 ± 1.7 h and the V is recorded as 1.1 ± 0.4 L/kg. In data set [1] (human microsomes, 0.8 µM), this compound came in with a CLint of under 7 µl/min/mg protein and a t1/2 of over 4 h.
As for `N#Cc1cc(NC(=O)[C@H]2c3ccccc3C(=O)N(CC(F)(F)F)[C@@H]2c2cccnc2)ccc1F` (racemic) [SJ733], the Tmax in data set [2] (setting [4]) is 1 h. In addition, in data set [2] (setting [5]), the bioavailability lay within 60 to 100%. Also, the “Dog F (oral bioavailability)” value in data set [2] (summary over the oral doses studied) was 74-115%. The “CYP2D6 inhibition, in words” value on CYP2D6 is “weak inhibitors”. Further, at CYP1A2, the “CYP1A2 inhibition, in words” value is listed as “weak inhibitors”.
As for `N#Cc1cc(NC(=O)C2c3ccccc3C(=O)N(CC(F)(F)F)C2c2cccnc2)ccc1F` (racemic) [(r)-SJ733], the CLint in vitro was 12.7 ± 0.3 µl/min/mg protein in data set [1] (setting [6]), 11.5 ± 0.3 µl/min/mg protein in data set [1] (setting [7]) and under 7 µl/min/mg protein in data set [1] (setting [8]). Moreover, the CLint in vivo in data set [1] (human microsomes, 0.8 µM) is 0.69 ± 0.018 L/h/kg; in data set [1] (human microsomes, 4 µM) it was 0.618 ± 0.072 L/h/kg; in data set [1] (human microsomes, 20 µM), under 0.312 L/h/kg. For the same compound, at CYP2D6, the “inhibition of CYP2D6” value is 7% and 9%. On CYP1A2, the “inhibition of CYP1A2” value is listed as 10.8%.
On to `N#Cc1cc(NC(=O)[C@H]2c3ccccc3C(=O)N(CC(F)(F)F)[C@@H]2c2cn[nH]c2)ccc1F` [SJ311], for which the time to peak (Tmax) in data set [2] (setting [4]) turned out to be 3 h. Also, in data set [2] (setting [5]), the bioavailability lay in the range of 74 to 78%. In data set [2] (regardless of route, mean), the “% dose recovered in dog urine” value is recorded as 32-34%. For the same compound, the “CYP2D6 inhibition, in words” value on CYP2D6 is “weak inhibitors”. In addition, the “CYP1A2 inhibition, in words” value at CYP1A2 is “weak inhibitors”.
Turning to `N#Cc1cc(NC(=O)[C@H]2c3ccccc3C(=O)N(CC(F)(F)F)[C@@H]2c2cccnc2)ccc1F` [(+)-SJ733], in data set [2] (single IV 3 mg/kg), the AUCinf was 33.1 ± 10.0 µM·h, the CL was determined as 0.204 ± 0.054 L/h/kg, the Dose in urine was 1.9 ± 0.3% and the Half life is 9.6 ± 4.7 h. In data set [2] (single IV 3 mg/kg), this compound displayed a Vss of 2.8 ± 1.8 L/kg. In data set [2] (single PO 3 mg/kg), this compound came in with an AUCinf of 40.6 ± 12.9 µM·h, a CL of 0.169 ± 0.055 L/h/kg, a maximum concentration (Cmax) of 3 ± 0.7 µM and a Dose in urine of 2.8 ± 0.2%. In data set [2] (single PO 3 mg/kg), the F% stood at 115 ± 29%, the Half life was determined as 11.4 ± 5.0 h, the Tmax is reported as 0.83 h and the V stood at 2.6 ± 0.8 L/kg. Besides, in data set [2] (single PO 30 mg/kg), the AUCinf was 243 ± 52.9 µM·h, the CL is given as 0.274 ± 0.067 L/h/kg, the maximum concentration (Cmax) turned out to be 25.6 ± 2.1 µM and the Dose in urine was determined as 3.1 ± 1.9%. Moreover, in data set [2] (single PO 30 mg/kg), the F% was 73.7 ± 16.1%, the Half life was determined as 5.3 ± 0.7 h, the Tmax worked out at 1.67 h and the V came to 2.1 ± 0.8 L/kg. In data set [1] (human microsomes, 0.8 µM), this compound had a CLint of 45.5 ± 4.0 µl/min/mg protein, a t1/2 of 0.5 ± 0.1 h and a CLint in vivo of 2.3 ± 0.042 L/h/kg. Besides, the CLint in vitro in data set [1] (setting [6]) came to 42.6 ± 0.7 µl/min/mg protein. The compound also returned a CLint in vitro in data set [1] (setting [7]) of 34.5 ± 0.6 µl/min/mg protein. For the same compound, the CLint in vivo in data set [1] (human microsomes, 4 µM) was 1.86 ± 0.03 L/h/kg. The compound also had a CLint in vitro in data set [1] (setting [8]) of 20.6 ± 0.5 µl/min/mg protein. The CLint in vivo in data set [1] (human microsomes, 20 µM) was determined as 1.11 ± 0.024 L/h/kg.
